According to PubChem BioAssay (NCI):
Several values for one entry are separate records, joined by “and”; a condition that tells them apart may be missing. Equal entries are not always repeated.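 Five compound concentrations were applied to cells in 96-well plates for 48 hours; endpoints were derived by simple linear interpolation of the resulting dose-response curve. GI50 marks 50% less growth. Definition used: TGI = concentration required for complete inhibition of growth.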

Columns and labels:
Test in all cases: growth of human tumour cells (NCI), 48 h
A549 NSCLC = test system: A549 NSCLC
COLO 205 colon = test system: COLO 205 colon
HOP-62 NSCLC = test system: HOP-62 NSCLC
IGROV1 ovarian = test system: IGROV1 ovarian
MALME-3M melanoma = test system: MALME-3M melanoma
OVCAR-3 ovarian = test system: OVCAR-3 ovarian
OVCAR-5 ovarian = test system: OVCAR-5 ovarian
SNB-19 CNS = test system: SNB-19 CNS
HS 578T breast = test system: HS 578T breast
MDA-MB-231 breast = test system: MDA-MB-231 breast

Compound | TGI (A549 NSCLC) [µM] | TGI (COLO 205 colon) | TGI (HOP-62 NSCLC) [µM] | TGI (IGROV1 ovarian) [µM] | TGI (MALME-3M melanoma) [µM] | TGI (OVCAR-3 ovarian) [µM] | TGI (OVCAR-5 ovarian) [µM] | TGI (SNB-19 CNS) [µM] | GI50 (A549 NSCLC) | GI50 (COLO 205 colon) | GI50 (HOP-62 NSCLC) | GI50 (HS 578T breast) [µM] | GI50 (IGROV1 ovarian) | GI50 (MDA-MB-231 breast) | GI50 (OVCAR-5 ovarian) | GI50 (SNB-19 CNS) | TGI (HS 578T breast) [µM] | TGI (MDA-MB-231 breast) [µM] | GI50 (OVCAR-3 ovarian) [µM] | GI50 (MALME-3M melanoma) [µM]
COC(=O)[C@H]1C=C[C@@H](C)n2c(=O)c3cc4ccccc4cc3c(=O)n21 | > 100 | > 100 µM | > 100 | > 100 | > 100 | > 100 | > 100 | > 100 |  |  |  |  |  |  |  |  |  |  |  | 
Cc1cc(C)nc(NS(=O)(=O)c2ccc(NC(=O)c3cccc4c(Nc5ccc(S(N)(=O)=O)cc5)c5ccccc5nc34)cc2)n1 | > 100 | > 62.5 µM | 98.8 | 28.4 | 55.5 | 27.6 | > 100 | > 100 |  |  |  |  |  |  |  |  |  |  |  | 
Cc1ccc(NC(=O)CSc2nnc(-c3ccc(N=Cc4ccc(Cl)cc4)cc3)o2)cc1 | > 100 | > 100 µM | > 100 |  | > 100 |  |  | > 100 |  |  |  |  |  |  |  |  |  |  |  | 
COC1(OC)CC2C(=O)N(Cc3ccccc3)C1C=C2S(=O)(=O)c1ccccc1 (stereo not given) | 64.2 | 22 µM | > 100 | > 100 | 39.6 | 28 |  | 54.7 |  |  |  |  |  |  |  |  |  |  |  | 
C/C(CC(=O)Nc1cccc(Cl)c1C)=N\NC(=O)c1ccncc1 | > 100 | > 100 µM | > 100 | > 100 | > 100 | > 100 | > 100 |  |  |  |  |  |  |  |  |  |  |  |  | 
Cc1nc([N+](=O)[O-])cn1CC(=N)N | > 100 | > 100 µM | > 100 | > 100 | > 100 | > 100 |  | > 100 |  |  |  |  |  |  |  |  |  |  |  | 
CC1COC(C)(C)P(=O)(c2ccccc2)C1 (stereo not given) | > 100 | > 100 µM | > 100 | > 100 | > 100 | > 100 | > 100 | > 100 |  |  |  |  |  |  |  |  |  |  |  | 
COc1cc(C=O)c(-c2cc(OC)c(OC)cc2C=O)cc1OC | > 100 | > 100 µM | > 100 | > 100 | > 100 | > 100 | > 100 | > 100 |  |  |  |  |  |  |  |  |  |  |  | 
CC(C)N(CCn1c2c3ccccc3ccc2c2oc(=O)c3ccccc3c21)C(C)C | > 100 | > 100 µM | 98.7 | > 100 | > 100 | > 100 | > 100 | > 100 |  |  |  |  |  |  |  |  |  |  |  | 
COC(=O)/C=C1\CCC(C)O1 (stereo not given) | > 100 | > 100 µM | > 100 | > 100 | > 100 | > 100 | > 100 | > 100 |  |  |  |  |  |  |  |  |  |  |  | 
COC(=O)[C@@H](C)C[C@H](Cc1ccccc1)NC(=O)c1csc([C@@H](C[C@H](C(C)C)N(C)C(=O)[C@@H](NC(=O)[C@H]2CCCCN2C)C2CCCCC2)OC(C)=O)n1 | > 25 | 0.0026 µM and < 0.0025 µM | > 25 | > 25 |  |  | > 25 | > 25 | 0.0022 µM and 0.0025 µM | 0.000301 µM and < 0.0025 µM | 0.00213 µM and 0.0025 µM | 0.0026 | 0.000631 µM and 0.0025 µM | 0.00115 µM and 0.0025 µM | 0.00685 µM and 0.0025 µM | 0.000718 µM and 0.0025 µM |  |  |  | 
N#CC(C(=O)C(=O)Nc1ccc(Cl)cc1)c1ccccc1 (stereo not given) | > 100 | > 100 µM | > 100 | > 100 | > 100 | > 100 | > 100 | > 100 |  |  |  |  |  |  |  |  |  |  |  | 
S=c1[nH]c(=S)c2nnn(-c3ccccc3)c2[nH]1 | > 100 | > 100 µM | > 100 | > 100 | > 100 | > 100 | > 100 | > 100 |  |  |  |  |  |  |  |  |  |  |  | 
COC(=O)/C=C/c1c(CC=C(C)C)ncn1C | > 100 | > 100 µM | > 100 | > 100 | > 100 | 59 | > 100 | > 100 |  |  |  |  |  |  |  |  |  |  |  | 
CCCN1CN(C(C(=O)N[C@@H]2C(=O)N3C2SC(C)(C)C3C(=O)O)c2ccc(O)cc2)CSC1=S (stereo not given in full) |  | > 100 µM | > 100 | > 100 | > 100 | 72.6 | > 100 | > 100 |  |  |  |  |  |  |  |  |  |  |  | 
Cc1cccc(C)c1NC(=O)C(=O)C(C(=O)c1ccccc1-c1ccccc1)C1OC(=O)c2ccccc21 (stereo not given) | 72.5 | 37.9 µM | 35.7 | 64.1 | 33.4 | 38 | 48.9 |  |  |  |  |  |  |  |  |  |  |  |  | 
CN[C@@H](C)[C@@H](NC)c1ccccc1 | > 100 | > 100 µM |  | > 100 |  | > 100 |  |  |  |  |  |  |  |  |  |  |  |  |  | 
CC(C)C(=O)Nc1nc2c(ncn2C2OC(CO)C(O)C2O)c(=O)[nH]1 (stereo not given) | > 100 | > 100 µM | > 100 | > 100 | > 100 | > 100 | > 100 |  |  |  |  |  |  |  |  |  |  |  |  | 
Cc1nc(-[n+]2nc(-c3ccncc3)nn2-c2ccccc2)sc1C | > 100 | > 100 µM | 31.9 | > 100 | > 100 |  | > 100 | > 100 |  |  |  |  |  |  |  |  | > 100 | > 100 |  | 
COc1ncc(-c2ccc3ncnc(Nc4cccc(Cl)c4)c3c2)cc1NS(=O)(=O)C1CC1 |  | > 100 µM |  |  |  |  |  | > 100 |  | > 100 µM |  | 0.365 |  | 3.38 µM |  | 3.92 µM | > 100 | > 100 |  | 
O=[N+]([O-])c1ccc(N2N=C(c3ccc(NCc4nc5ccccc5[nH]4)cc3)CC2c2ccco2)cc1 (stereo not given) | > 100 | 77.9 µM | > 100 | > 100 | 66.4 | 80.2 | > 100 | > 100 |  |  |  |  |  |  |  |  |  |  |  | 
O=C1c2ccccc2-c2c1c1ccccc1c(=O)n2CCCCl | 16 |  | 6.57 |  |  | 8.18 |  | > 100 | 3.23 µM |  | 1.77 µM | 17.6 |  | 11.4 µM |  | 34.2 µM | 73.5 | 39.8 | 3.23 | 
CCOP(=O)(OCC)OC1C=CC2CCC1C2 (stereo not given) | > 100 | > 100 µM | > 100 | > 100 | > 100 | > 100 | > 100 | > 100 |  |  |  |  |  |  |  |  |  |  |  | 
COc1cc(C(=O)N2CCN(c3ncccn3)CC2)c(N)cc1OCc1ccccc1 | > 100 | > 100 µM |  | > 100 | > 100 | > 100 | > 100 | > 100 | > 100 µM | > 100 µM |  | > 100 | > 100 µM | > 100 µM | 29.6 µM | > 100 µM | > 100 | > 100 | 85.6 | > 100
